Experimental data published in patent US11426422B2, “SHP2 inhibitors and methods of use thereof” (Research Development Foundation, priority 2018, dated 2022).
Where no end group is shown, it is not given here. [ ]: non-standard residue; d: D form. pY = N[C@@H](Cc1ccc(OP(=O)(O)O)cc1)C(=O)O

Key:
[1] = test system: HepG2 cells expressing IR-GFP WT; assay: insulin-activated IR endocytosis in HepG2 cells expressing IR-GFP WT (immunofluorescence, PM/IC ratio); type: cell-based; settings: serum starved 14 h, inhibitor 2 h, then 100 nM insulin 20 min; BMS536924 2 μM, U0126 40 μM, SHP099 40 μM, AKT inhibitor VIII 5 μM, BI2536 200 nM, Reversine 1 μM
Method: (FIG. 2A) HepG2 cells expressing IR-GFP WT were starved, treated with the indicated inhibitors for 2 h, treated without or with 100 nM insulin for 20 min, and stained with anti-GFP (IR; green) and DAPI (blue). […] Quantification of the ratios of PM and IC IR-GFP signals of cells was shown (mean±SD; *p<0.0001).
To test whether the MAPK pathway and SHP2 might regulate the IRS1/2-AP2 interaction and IR endocytosis through modulating IRS1/2 phosphorylation patterns, the effects of inhibiting SHP2 or the MAPK pathway on insulin-activated IR endocytosis were examined (FIG. 2A and FIG. 7A).
For testing the effects of kinase inhibitors on IR endocytosis, the cells were serum starved for 14 h and inhibitors were added at 2 h before insulin treatment.

AP2M1 (residues 160-435) [2] = target: T1, AP2M1 (residues 160-435) (Homo sapiens, UniProt Q96CW1); assay: in vitro peptide pull-down of AP2M1 with IRS1 peptides; type: binding; settings: peptide beads pull-down, SDS-PAGE, Coomassie
T1 construct: The AP2M1 fragment (residues 160-435) was cloned into a modified pET28a; His6 (N, cleaved yes); made in house; host or cells: E. coli BL21(DE3)
T1 sequence (Q96CW1 160-435): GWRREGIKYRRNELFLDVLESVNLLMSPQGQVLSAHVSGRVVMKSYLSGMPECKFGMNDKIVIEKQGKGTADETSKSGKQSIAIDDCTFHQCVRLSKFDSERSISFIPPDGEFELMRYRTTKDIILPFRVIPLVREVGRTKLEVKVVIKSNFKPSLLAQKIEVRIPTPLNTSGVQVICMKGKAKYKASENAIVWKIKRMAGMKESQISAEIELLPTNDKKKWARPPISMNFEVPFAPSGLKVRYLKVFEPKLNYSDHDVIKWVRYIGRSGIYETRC
Method: FIGS. 2A-I. The MAPK pathway and SHP2 promote insulin-activated IR endocytosis. (FIG. 2A) HepG2 cells expressing IR-GFP WT were starved, treated with the indicated inhibitors for 2 h, treated without or with 100 nM insulin for 20 min, and stained with anti-GFP (IR; green) and DAPI (blue). See also FIG. 7A for representative images. Quantification of the ratios of PM and IC IR-GFP signals of cells was shown (mean±SD; *p<0.0001). (FIG. 2B) Binding of IRS1 peptides to AP2M1 (residues 160-435). Input and proteins bound to IRS1-peptide beads were analyzed by SDS-PAGE and stained with Coomassie (CBB). The relative band intensities are shown below (mean±SD; n=4 independent experiments). (FIG. 2C) ITC analysis of binding between IRS1 peptides and AP2M1 (residue 160-435), with the Kd indicated. (FIG. 2D) The IRS1 peptides were incubated with active SHP2 for the indicated durations, spotted onto membranes, and detected with the anti-pY612-IRS1 antibody. (FIG. 2E) Quantification of the relative SHP2 activity in FIG. 2D (mean±SD; n=4 independent experiments; *p<0.0001). (FIG. 2F) Model of the regulation of insulin-activated IR endocytosis by a phosphorylation switch on IRS1/2. Insulin-bound IR phosphorylates itself and IRS1/2, and activates the PI3K-AKT and MAPK pathways. SHP2 acts upstream of RAS-RAF and promotes the activation of MAPK pathway. p31^comet binds to the IR-bound MAD2 and blocks IR-AP2 association to prevent premature IR endocytosis. In feedback regulation, activated ERK1/2 phosphorylate S616 and other sites on IRS1. […]
(§1) For GST pull-down assays of in vitro translated (IVT) IRS1 proteins, beads bound to GST-AP2M1 or GST were incubated with IVT products diluted in the cell lysis buffer at 4° C. for 2 h. After incubation and washing, proteins bound to beads were eluted with the SDS loading buffer, resolved with SDS-PAGE, and detected with Coomassie staining or immunoblotting with the appropriate antibodies. […]

[3] = test system: HepG2 cells expressing IR-GFP mutants; assay: cellular localization of IR-GFP mutants in HepG2 cells after inhibitors; type: cell-based; settings: starved 14 h, inhibitors 4 h, no insulin; for PM levels of Class II IR mutants: R1020Q, V1054M, A1075D, V1086E, I1143T
Excerpt: FIGS. 4A-E. Dysregulation of IR endocytosis as a potential contributing factor to human insulin resistance syndromes. (FIG. 4A) Representative images of liver specimens from human non-diabetes and diabetes patients stained with DAPI (blue) and anti-IR (red) and anti-ZO-1 (green) antibodies. Scale bars, 40 μm. (FIG. 4B) Quantification of the percentage of cells with positive IR PM signals in liver specimens in FIG. 4A (mean±SD; *p<0.0001). (FIG. 4C) HepG2 cells stably expressing IR-GFP R1020Q, V1054M, A1075D, V1086E, or I1143T were serum starved and stained with anti-GFP and anti-RAB7 antibodies. Scale bar, 5 μm. (FIG. 4D) Quantification of the ratios of PM and IC IR-GFP signals of cells in FIG. 4C (mean±SD; *p<0.0001). (FIG. 4E) Targeting feedback regulation of IR endocytosis for diabetes treatment. Left panel depicts the feedback regulation of IR endocytosis by ERK1/2 and SHP2 during unperturbed insulin signaling.
FIGS. 9A-D. Characterization of IR mutations found in human patients. (FIG. 9A) HepG2 cells expressing IR-GFP Class I mutants (P997T, V1012M, A1055V, K1095E, R1119Q, H1157R, R1191Q, Y1361C, or R1378Q) were starved for 14 h, treated with the indicated inhibitors for 4 h, and stained with anti-GFP (IR; green) and DAPI (blue). Scale bar, 5 m. (FIG. 9B) HepG2 cells expressing IR-GFP Class II mutants (R1020Q, V1054M, A1075D, V1086E, or I1143T) were analyzed as described in FIG. 9A. (FIG. 9C) HepG2 cells expressing IR-GFP Class III mutants (A1162E or W1220L) were analyzed as described in A. (FIG. 9D) HepG2 cells expressing IR-GFP WT, R1020Q, or V1054M were serum starved for 14 h and treated with DMSO or 80 μM Dynasore for 4 h. Cell lysates were blotted with the indicated antibodies.
Mutations of IR are known to cause inherited severe insulin resistance syndromes, but the mechanisms by which these mutations affect IR function have not been systematically explored. HepG2 cell lines were generated which stably expressed IR mutants fused to GFP, and the subcellular localization of these IR-GFP proteins was examined (FIGS. 9A-C and Table 1).
There were three distinct classes of IR mutants based on their subcellular localization in the unstimulated state. Class I mutants localized to the PM. […] Thus, certain IR mutations found in human insulin resistance syndromes perturbs IR kinase regulation and causes premature IR endocytosis.
Cellular localization of IR mutants was examined after inhibiting the SHP2 or MAPK pathways (FIGS. 4C-D, and FIGS. 9A-C).
Indirect immunofluorescence microscopy was performed on cells grown on coverslips and fixed in cold methanol at −20° C. for 10 min. The fixed cells were incubated with PBS for 30 min and 3% BSA in 0.1% PBST for 1 h, and then treated with diluted antibodies in 0.3% BSA in 0.1% PBST at 4° C. overnight. After being washed, cells were incubated with fluorescent secondary antibodies and mounted on microscope slides in ProLong Gold Antifade reagent with DAPI (Invitrogen). Images of fixed cells were acquired as a series of 0.4 m stacks with a DeltaVision® system (Applied Precision®, Issaquah, Wash.). Raw images were deconvolved using the iterative algorithm implemented in the softWoRx® software (Applied Precision®, Issaquash, Wash.). The central section of a 0.4 μm z-stack containing 3 contiguous focal planes was used for quantification. The cell edges were defined with Image J. The whole cell signal intensity (WC) and intracellular signal intensity (IC) were measured. The plasma membrane signal intensity (PM) was calculated by subtracting IC from WC. Identical exposure times and magnifications were used for all comparative analyses.

AP2M1 (residues 160-435) [4] = target: T1, AP2M1 (residues 160-435); assay: isothermal titration calorimetry (ITC) of IRS1 peptides with AP2M1; type: binding; settings: 20° C., HEPES buffer pH 7.5
Excerpt: The unphosphorylated and phosphorylated IRS1 peptides containing 612YMPMS (SEQ ID NO:7) FIG. 7B) were chemically synthesized and used for in vitro pull-down assays to examine their binding to AP2M1 (FIG. 2B). […] Thus, phosphorylation of IRS1 by ERK1/2 enhances IRS1 binding to AP2M1.
The AP2M1 fragment (residues 160-435) was cloned into a modified pET28a that introduced an N-terminal His6-tag followed by a thrombin cleavage site. The plasmid was transformed into BL21(DE3) E. coli cells. Protein expression was induced by 0.2 mM IPTG at 20° C. overnight. The harvested pellets were lysed in the lysis buffer II (20 mM Tris-HCl, pH 7.5, 500 mM NaCl, 20 mM Imidazole, 1 mM PMSF). After sonication, lysates were cleared by centrifugation at 4° C. The supernatants were filtered by […] filter and incubated with pre-equilibrated Ni2+-NTA beads (Qiagen®). […]
as §1

| Compound | insulin-activated IR endocytosis (ratio of PM and IC IR-GFP signals) [1] | PM levels of Class II IR mutants [3] | also measured |
| --- | --- | --- | --- |
| O=c1[nH]c2ccccc2n1C1CCN(Cc2ccc(-c3nc4cc5[nH]cnc5cc4nc3-c3ccccc3)cc2)CC1 [AKTi, VIII] | did not affect IR endocytosis |  |  |
| AMPAS: mutant IRS1 peptide CHTDDGAMPASPGVA (SEQ ID NO:10), Y612 and M615 replaced by alanine |  |  | binding to AP2M1 (AP2M1 (residues 160-435) [2]): did not |
| pYMPMS: singly phosphorylated IRS1 peptide CHTDDGpYMPMSPGVA (SEQ ID NO:12) (CHTDDG[pY]MPMSPGVA) |  |  | binding to AP2M1 (AP2M1 (residues 160-435) [2]): abolished AP2M1 binding |
| Cc1cc(N2CCOCC2)cc2[nH]c(-c3c(NC[C@@H](O)c4cccc(Cl)c4)cc[nH]c3=O)nc12 [BMS536924] | blocked IR endocytosis | restored Class II IR mutants at the PM |  |
| O=C(N/N=C/c1ccc(O)c(O)c1)c1cc2ccccc2cc1O [dynasore] |  | elevated the IR signal of Class II mutants at the PM |  |
| c1nc2nc(Nc3ccc(N4CCOCC4)cc3)nc(NC3CCCCC3)c2[nH]1 [Reversine] | did not appreciably inhibit IR endocytosis |  |  |
| CHTDDGYMPMSPGVA [YMPMS] |  |  | Kd (AP2M1 (residues 160-435) [4]): 2.03 µM |
| N#CC(=C(/N)Sc1ccccc1N)/C(C#N)=C(\N)Sc1ccccc1N [Compound U0126] | blocked IR endocytosis | significantly enhanced the PM levels of Class II IR mutants | PM levels of Class I and III IR mutants [3]: not those of Class I and III IR mutants |
